Results from US20200165194A1, “ADDITIVE COMPOSITION FOR CULTURE MEDIUM, ADDITIVE COMPOUND FOR CULTURE MEDIUM, AND METHOD FOR CULTURE OF CELLS OR TISSUE USING SAME” (NISSAN CHEMICAL CORPORATION, priority 2017, published 2020).
Read-outs that look alike come from different tables or passages of the source.

Experiments:
Assay type in all cases: cell-based
plural animal cell lines = experiment: Animal cell lines, summary over the cell lines (Experimental Example 15); settings: animal cell lines under three-dimensional conditions
Text: (§1) Various animal cell lines were precultured (single layer culture) as follows in respective media. Chinese hamster ovary-derived cell line CHO-K1 (manufactured by DS PHARMA BIO MEDICAL, 10% fetal bovine serum (FBS, manufactured by Corning)-containing Ham's F-12 medium (manufactured by Fujifilm Wako Pure Chemical Corporation)), Cercopithecus aethiops kidney epithelium-derived cell line Vero (purchased from JCRB cell bank, 5% FBS-containing Medium 199 medium (manufactured by Life Technologies)). The above-mentioned cells in the logarithmic growth phase were washed with PBS, a 0.25 w/v % trypsin-1 mmol/L EDTA (ethylenediaminetetraacetic acid) solution (manufactured by Fujifilm Wako Pure Chemical Corporation) was added, and adherent cells were detached by incubating at 37° C. for 3 min. Each medium was added and the mixture was centrifuged and resuspended in the same medium.
(§2) The aforementioned various animal cells were suspended in respective deacylated gellan gum-containing or not containing media (deacylated gellan gum concentration was 0.02 w/v % in Ham's F-12 medium, 0.015 w/v % in Medium 199 medium), and seeded in a 96 well low attachment U-bottom plate (manufactured by Corning, #4520, deacylated gellan gum-free medium), or a low attachment flat bottom plate (manufactured by Corning, #3474, deacylated gellan gum-containing medium) at a cell concentration of 700-2000 cells/90 μL/well (all 3D culture). […] The amount of each compound solution to be added was […]. As a control, a DMSO solution dissolved in a medium was added (DMSO final concentration 0.1%). […] When compared with the compound non-addition (control), one showing a value of not more than 119% as -, one showing a value of not less than 120% as ◯, and one showing a value of not less than 150% as ⊚ are shown in the twenty-third table and the twenty-fourth table.

[1] = tested on: human ovarian cancer cell line SKOV3; experiment: Various human cancer cells-2, 3D culture, ATP assay (Experimental Example 6); settings: 4 days
Protocol: (§3) Various human-derived cancer cells were precultured (single layer culture) in respective media shown below. […] The above-mentioned cells in the logarithmic growth phase were washed with PBS, a 0.25 w/v % trypsin-1 mmol/L EDTA (ethylenediaminetetraacetic acid) solution (manufactured by Wako Pure Chemical Industries, Ltd.) was added, and adherent cells were detached by incubating at 37° C. for 1-5 min. Each medium was added and the mixture was centrifuged. After resuspension in the same medium, each cell was recovered.
(§4) The aforementioned various cells were suspended in respective deacylated gellan gum-containing or not containing media (deacylated gellan gum concentration was 0.015 w/v %), and seeded in a 96 well low attachment U-bottom plate (manufactured by Corning, #4520, deacylated gellan gum-free medium), or a low attachment flat bottom plate (manufactured by Corning, #3474, deacylated gellan gum-containing medium) at a cell concentration of 700-12000 cells/90 μL/well (all 3D culture). […] The amount of each compound solution to be added was 10 μL/well. As a control, a DMSO solution dissolved in a medium was added (DMSO final concentration 0.1%). […] When compared with the compound no-addition (control), one showing a value of not more than 119% as -, one showing a value of not less than 120% as ◯, and one showing a value of not less than 150% as ⊚ are shown in the eleventh table and the twelfth table. Unperformed test is left blank.

[2] = tested on: human alveolar basal epithelial adenocarcinoma-derived cell line A549; experiment: as above; settings: 4 days
Protocol: as §3, §4

[3] = tested on: Chinese hamster ovary-derived cell line CHO-K1; experiment: Animal cell lines, 3D culture, ATP assay (Experimental Example 15); settings: 4 days
Text: as §1, §2

[4] = tested on: Cercopithecus aethiops kidney epithelium-derived cell line Vero; experiment: as above; settings: for number of viable cells (RLU), relative value to control (100%): 4 days
Text: as §1, §2

[5] = tested on: a plurality of cancer cell lines; experiment: Various human cancer cells-2, summary over the cell lines (Experimental Example 6); settings: cancer cell lines under three-dimensional conditions
Protocol: as §3, §4

hiPS cell line 253G1 = experiment: Human pluripotent stem cell (hiPS cell), EZSPHERE plate, ATP assay (Experimental Example 13)
How it was run: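 hiPS 253G1 cells maintained on vitronectin in mTeSR1, dissociated with TrypLE Select, then seeded at 10000 cells/well in EZSPHERE plates in medium with 10 μM Y-27632. Compound added, with half-medium exchange daily and compound replenished to hold concentration constant; DMSO control at 0.05% final.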

[6] = low attachment U-bottom plate, 5 μM
[7] = low attachment U-bottom plate, 10 μM
[8] = low attachment flat bottom plate (gellan gum medium), 5 μM
[9] = low attachment flat bottom plate (gellan gum medium), 10 μM

SMILES: CC/C(=N\NC(=O)NCc1cccc(O)c1)c1ccc(O)c(C)c1O [k-1:J-1]
- proliferation activity (in words) (plural animal cell lines): promoted proliferation activity in plural animal cell lines
- number of viable cells (RLU), relative value to control (100%) [1, 6]: ⊙
- number of viable cells (RLU), relative value to control (100%) [1, 7]: ⊙
- number of viable cells (RLU), relative value to control (100%) [1, 8]: ⊙
- number of viable cells (RLU), relative value to control (100%) [1, 9]: ⊙
- number of viable cells (RLU), relative value to control (100%) [2, 6]: ⊙
- number of viable cells (RLU), relative value to control (100%) [2, 7]: ⊙
- number of viable cells (RLU), relative value to control (100%) [2, 8]: ⊙
- number of viable cells (RLU), relative value to control (100%) [2, 9]: ⊙
- number of viable cells (RLU), relative value to control (100%) ([3]; CHO-K1, low attachment flat bottom plate (deacylated gellan gum-containing medium), 10 μM): ⊙
- viability at 5 µM ([3]; Cricetulus griseus, CHO-K1, 96 h, read-out: number of viable cells (RLU), relative value to control (100%), CHO-K1, low attachment U-bottom plate): < 119%
- viability at 10 µM ([3]; Cricetulus griseus, CHO-K1, 96 h, read-out: number of viable cells (RLU), relative value to control (100%), CHO-K1, low attachment U-bottom plate, 10 μM): < 119%
- viability at 5 µM ([3]; Cricetulus griseus, CHO-K1, 96 h, read-out: number of viable cells (RLU), relative value to control (100%), CHO-K1, low attachment flat bottom plate (deacylated gellan gum-containing medium)): 120 to 150%
- viability at 5 µM ([4]; Chlorocebus sabaeus, 96 h, read-out: number of viable cells (RLU), relative value to control (100%)): 120 to 150%
- number of viable cells (RLU), relative value to control (100%) [4, 6]: ⊙
- number of viable cells (RLU), relative value to control (100%) [4, 7]: ⊙
- number of viable cells (RLU), relative value to control (100%) ([4]; low attachment flat bottom plate (deacylated gellan gum-containing medium), 10 μM): ⊙
- proliferation activity (in words) [5]: promoted proliferation activity in a plurality of cancer cell lines
- relative value (%) (hiPS cell line 253G1; hiPS 253G1, EZSPHERE plate, 5 μM, 3 days, RLU of DMSO addition = 100%): 227%
- proliferation activity (in words) (hiPS cell line 253G1; human pluripotent stem cells under three-dimensional conditions): promoted proliferation activity in human pluripotent stem cells
